The text below walks through data of patent publication US8883782B2, “Spiro-tetracyclic ring compounds as beta-secretase modulators and methods of use” (Amgen Inc., priority 2010, dated 2014).

Test [1] deals with Aβ40 in conditioned medium of cells stably expressing Amyloid Precursor Protein (APP). The test is described as follows: In vitro BACE cell-based assay (Aβ40 in conditioned medium, sandwich ELISA). The conditions noted are these: Homo sapiens, read-out: HEK cell assay. The method, boiled down:
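Secreted Aβ40 is captured with pAb40 and detected with biotinylated 6E10, read by europium time-resolved fluorescence. IC50 comes from percent inhibition versus concentration.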

Test [2] has as its target Beta Secretase enzyme (BACE) (Homo sapiens, UniProt P56817). The test is described as follows: In vitro enzymatic BACE FRET (fluorescence resonance energy transfer) assay. Conditions: average IC50, enzyme assay; read-out: BACE 1 FRET assay. Type of test: biochemical. An outline of the steps: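 Enzyme activity was measured at pH 4.2 (0.05 M acetate, 10% DMSO final, 100 uM genapol) by cleavage of a 50 nM quenched fluorogenic peptide. After one hour, Tris was added to neutralise the pH and fluorescence was recorded.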

Where [3] appears, read: HEK293, average IC50, HEK cells.

Where two headings read alike, the source gives them in different places. Where only a bound is given, the exact number is not on record here.

Chain of Beta Secretase enzyme (BACE) (P56817 46-501, species assumed): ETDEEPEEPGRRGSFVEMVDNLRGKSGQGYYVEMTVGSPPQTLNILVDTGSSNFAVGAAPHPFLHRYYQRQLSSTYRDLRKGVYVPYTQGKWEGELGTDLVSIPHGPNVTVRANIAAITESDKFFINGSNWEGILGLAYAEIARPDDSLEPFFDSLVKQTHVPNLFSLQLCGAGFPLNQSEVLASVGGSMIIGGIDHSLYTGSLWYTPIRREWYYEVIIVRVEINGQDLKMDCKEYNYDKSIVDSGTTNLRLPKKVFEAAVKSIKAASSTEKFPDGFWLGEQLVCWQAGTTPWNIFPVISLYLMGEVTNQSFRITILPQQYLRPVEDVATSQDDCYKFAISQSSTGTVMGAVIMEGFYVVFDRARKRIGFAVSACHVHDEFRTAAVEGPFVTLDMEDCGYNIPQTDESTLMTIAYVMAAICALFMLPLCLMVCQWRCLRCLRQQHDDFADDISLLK

Regarding `NC1=N[C@@]2(CS1)c1cc(-c3cncc(F)c3)ccc1Oc1ncc(C3=CCCOC3)cc12` [Example 770, (5S)-3-(5,6-dihydro-2H-pyran-3-yl)-7-(5-fluoro-3-pyridinyl)spiro[chromeno[2,3-b]pyridine-5,4′-[1,3]thiazol]-2′-amine], the IC50 is 10 nM in test [1] (HEK293, average IC50) and 0.6 nM in test [2].
For `NC1=N[C@@]2(CO1)c1cc(-c3ccnc(F)c3)ccc1Oc1cnc(Cl)cc12` [Example 675, (5S)-3-chloro-7-(2-fluoro-4-pyridinyl)spiro[chromeno[2,3-c]pyridine-5,4′-[1,3]oxazol]-2′-amine], the IC50 in test [1] (setting [3]) was 415 nM; in test [2] it was 2630 nM.
In the case of `Cc1ccc(-c2cc(F)c3c(c2)[C@]2(CSC(N)=N2)c2cc(-c4cccnc4F)ccc2O3)cn1` [Example 1086, (4S)-4′-fluoro-7′-(2-fluoro-3-pyridinyl)-2′-(6-methyl-3-pyridinyl)spiro[1,3-thiazole-4,9′-xanthen]-2-amine], the IC50 in test [1] (HEK293, average IC50) was 1370 nM; in test [2] it was 67 nM.
Taken in the same sequence, the figures for `COCC1SC(N)=N[C@@]12c1cc(-c3cccnc3F)ccc1Oc1c(F)cc(OC)cc12` (stereo partly drawn) [Example 1090, (4R)-4′-fluoro-7′-(2-fluoro-3-pyridinyl)-2′-methoxy-5-(methoxymethyl)spiro[1,3-thiazole-4,9′-xanthen]-2-amine] were above 10000 nM and 2400 nM.
Taken in the same sequence, the figures for `CC1(COc2cc(F)c3c(c2)[C@]2(COC(N)=N2)c2cc(-c4cncc(Cl)c4)ccc2O3)COC1` [Example 206, (4S)-7′-(5-chloro-3-pyridinyl)-4′-fluoro-2′-((3-methyl-3-oxetanyl)methoxy)spiro[1,3-oxazole-4,9′-xanthen]-2-amine] were 2.4 nM and 0.7 nM.
For `CC1(COc2cc(F)c3c(c2)[C@]2(CSC(N)=N2)c2cc(-c4cccnc4F)c(F)cc2O3)COC1` [Example 885, (4S)-3′,5′-difluoro-2′-(2-fluoro-3-pyridinyl)-7′-((3-methyl-3-oxetanyl)methoxy)spiro[1,3-thiazole-4,9′-xanthen]-2-amine], the IC50 came out at 5 nM in test [1] (setting [3]) and 0.4 nM in test [2].
Turning to `NC1=N[C@@]2(CS1)c1cc(-c3cnccc3F)ccc1Oc1ncc(-c3cccnc3F)cc12` [Example 788, (5S)-3-(2-fluoro-3-pyridinyl)-7-(4-fluoro-3-pyridinyl)spiro[chromeno[2,3-b]pyridine-5,4′-[1,3]thiazol]-2′-amine], the IC50 in test [1] (HEK293, average IC50) worked out at 59 nM; in test [2] it was 5 nM.
`N#Cc1cccc(-c2ccc3c(c2)[C@@]2(CSC(N)=N2)c2cc(C4=CCCOC4)cnc2O3)c1F` [Example 778, 3-((5S)-2′-amino-3-(5,6-dihydro-2H-pyran-3-yl)spiro[chromeno[2,3-b]pyridine-5,4′-[1,3]thiazol]-7-yl)-2-fluorobenzonitrile]: the IC50 stood at 54 nM in test [1] (HEK293, average IC50) and 2.8 nM in test [2].
Taken in the same sequence, the figures for `NC1=N[C@@]2(CO1)c1cc(-c3cncc(C#CC4CC4)c3)ccc1Oc1cnc(-c3ccnc(F)c3)cc12` [Example 815, (5S)-7-(5-(cyclopropylethynyl)-3-pyridinyl)-3-(2-fluoro-4-pyridinyl)spiro[chromeno[2,3-c]pyridine-5,4′-[1,3]oxazol]-2′-amine] were 699 nM and 1.9 nM.
Taken in the same sequence, the figures for `Cn1cc(-c2cc3c(cn2)Oc2ccc(-c4ccccc4)cc2[C@@]32COC(N)=N2)cn1` [Example 367, (5S)-3-(1-methyl-1H-pyrazol-4-yl)-7-phenylspiro[chromeno[2,3-c]pyridine-5,4′-[1,3]oxazol]-2′-amine] were 74 nM and 13.3 nM.
With `CC#Cc1cncc(-c2cc(F)c3c(c2)[C@]2(COC(N)=N2)c2cc(OC)ccc2O3)c1` [Example 776, (4S)-4′-fluoro-7′-methoxy-2′-(5-(1-propyn-1-yl)-3-pyridinyl)spiro[1,3-oxazole-4,9′-xanthen]-2-amine], the IC50 in test [1] (HEK293, average IC50) is at least 10000 nM; in test [2], 2380 nM.
Taken in the same sequence, the figures for `COc1cc2c(c(F)c1F)Oc1ccc(Br)cc1[C@@]21COC(N)=N1` [Example 1003, (4S)-7′-bromo-3′,4′-difluoro-2′-methoxyspiro[1,3-oxazole-4,9′-xanthen]-2-amine] were at least 10000 nM and 1090 nM.
As to `CC1(C)CC(c2cc3c(c(F)n2)Oc2ccc(-c4cccnc4F)cc2[C@@]32CSC(N)=N2)=CCO1` [Example 1034, (5S)-3-(2,2-dimethyl-3,6-dihydro-2H-pyran-4-yl)-1-fluoro-7-(2-fluoro-3-pyridinyl)spiro[chromeno[2,3-c]pyridine-5,4′-[1,3]thiazol]-2′-amine], the IC50 in test [1] (HEK293, average IC50) worked out at 5 nM; in test [2], 0.7 nM.
As to `Cc1ccnc(Oc2ccc3c(c2)[C@@]2(COC(N)=N2)c2cc(N4CCOCC4)cc(F)c2O3)c1` [Example 1059, (4S)-4′-fluoro-7′-((4-methyl-2-pyridinyl)oxy)-2′-(4-morpholinyl)spiro[1,3-oxazole-4,9′-xanthen]-2-amine], the IC50 in test [1] (HEK293, average IC50) amounted to 609 nM; in test [2] it was 33.9 nM.
For the compound `NC1=N[C@]2(CS1)c1cc(-c3cncnc3)c(F)cc1Oc1c(F)cc(C3=CCCOC3)cc12` [Example 874, (4R)-7′-(5,6-dihydro-2H-pyran-3-yl)-3′,5′-difluoro-2′-(5-pyrimidinyl)spiro[1,3-thiazole-4,9′-xanthen]-2-amine], the IC50 in test [1] (setting [3]) amounted to 506 nM; in test [2], 32.5 nM.
For the compound `NC1=N[C@@]2(CO1)c1cc(-c3cccnc3F)ccc1Oc1cc(F)c(-c3ccncc3)cc12` [Example 321, (4S)-3′-fluoro-7′-(2-fluoro-3-pyridinyl)-2′-(4-pyridinyl)spiro[1,3-oxazole-4,9′-xanthen]-2-amine], the IC50 came out at 61.5 nM in test [1] (HEK293, average IC50) and 20.3 nM in test [2].
In the case of `CC1(C#Cc2cnc3c(c2)[C@]2(COC(N)=N2)c2cc(-c4cncc(Cl)c4)ccc2O3)COC1` [Example 186, (5S)-7-(5-chloro-3-pyridinyl)-3-((3-methyl-3-oxetanyl)ethynyl)spiro[chromeno[2,3-b]pyridine-5,4′-[1,3]oxazol]-2′-amine], the IC50 in test [1] (HEK293, average IC50) was determined as 3 nM; in test [2] it was 0.5 nM.
Turning to `NC1=N[C@]2(CO1)c1cc(-c3cccnc3)ccc1Oc1c2cc(-c2cccnc2)nc1F` [Example 486, (5R)-1-fluoro-3,7-di-3-pyridinylspiro[chromeno[2,3-c]pyridine-5,4′-[1,3]oxazol]-2′-amine], the IC50 is 326 nM in test [1] (setting [3]) and 301 nM in test [2].
On to `CC1(C#Cc2cnc3c(c2)[C@]2(CSC(N)=N2)c2cc(-c4cccc(C#N)c4F)ccc2O3)COC1` [Example 780, 3-((5S)-2′-amino-3-((3-methyl-3-oxetanyl)ethynyl)spiro[chromeno[2,3-b]pyridine-5,4′-[1,3]thiazol]-7-yl)-2-fluorobenzonitrile], for which the IC50 was 338 nM in test [1] (HEK293, average IC50) and 2 nM in test [2].
Taken in the same sequence, the figures for `NC1=N[C@@]2(CS1)c1cc(-c3cccnc3F)ccc1Oc1c(F)cc(C3=CCOCC3)cc12` [Example 791, (4S)-2′-(3,6-dihydro-2H-pyran-4-yl)-4′-fluoro-7′-(2-fluoro-3-pyridinyl)spiro[1,3-thiazole-4,9′-xanthen]-2-amine] were 10 nM and 0.1 nM.
